Several values for one entry are separate records, joined by “and”; a condition that tells them apart may be missing. Identical values can stand only once. Activity calls are given as the source filed them.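 The calls were made as follows: active = compounds giving half or more protection of infected cells from virus-caused growth loss, again on retest; inactive = the rest.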
Test system: CEM cells HIV-1 protection, formazan growth assay
Assay: NCI AIDS Antiviral Assay
Settings: for IC50: measured here: growth of uninfected CEM cells
Outline: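 Human CEM cells, uninfected and HIV-1-infected, exposed to five drug concentrations; growth measured by soluble formazan assay and scored as percent protection from infection, with protecting compounds retested.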

| Compound | EC50 | IC50 | outcome |
| --- | --- | --- | --- |
| CC(C)[Si](OCC1CC(C[C@H]2CC(C[C@H]3C[C@@H](CO[Si](C(C)C)(C(C)C)C(C)C)OC(C)(C)O3)OC(C)(C)O2)OC(C)(C)O1)(C(C)C)C(C)C (stereo partly specified) | > 200 µM | > 200 µM |  |
| CCCCCCCCCCCCCC(=O)OCC(CCS(=O)(=O)O[C@H]1CC[C@@]2(C)C(=CC[C@@H]3C2CC[C@]2(C)C(=O)CCC32)C1)OC(=O)CCCCCCCCCCCCC (stereo partly specified) | 39.8 µM | > 100 µM |  |
| CN(C)Cc1cc(N=Nc2ccc(Cl)cc2)ccc1OC(=O)c1ccccc1 | > 200 µM | 14.5 µM |  |
| N#Cc1sc2c(c1OC(=O)c1ccccc1)c(=O)n(-c1ccccc1)c(=S)n2-c1ccccc1 | > 200 µM | 2.34 µM |  |
| CCOC(=O)c1cc(=O)oc2c1N(C)c1ncccc1N2 | > 200 µM | 166 µM |  |
| Cc1ccc(NC(=O)CSc2nnc(-c3ccc(N=Cc4ccc(Cl)cc4)cc3)o2)cc1 | > 282 µM | 145 µM |  |
| N#C/C=C/c1ccc(C#N)cc1 | > 64.6 µM | > 64.6 µM |  |
| CCN(CC)C1CC(O[C@H]2C[C@](O)(C(=O)CO)Cc3c(O)c4c(c(O)c32)C(=O)c2c(OC)cccc2C4=O)OC(C)C1O (stereo partly specified) |  |  | inactive |
| Cc1ccc(NC(=O)SCCC(=O)O)cc1NC(=O)SCCC(=O)O |  |  | inactive |
| C(=NCCCN1CCN(CCCN=Cc2cccc3ccccc23)CC1)c1cccc2ccccc12 | > 200 µM | 46.8 µM |  |
| O=c1c2cc3c(cc2c2cccc4ccn1c42)OCO3 |  |  | inactive |
| COc1cc(C(=O)CC2OC(=O)C(Cl)=C2Cl)ccc1Cl (stereo unspecified) | > 741 µM | 145 µM |  |
| c1cc2c(s1)-c1sccc1C21OCCO1 | > 200 µM | 162 µM |  |
| COc1ccc(CCn2cnc3ccccc32)cc1 | > 200 µM | > 200 µM |  |
| CCOC(=O)Oc1cc2c(c(OC)c1OC)-c1ccc(OC)c(=O)cc1C(NC(C)=O)CC2 (stereo unspecified) | > 2 µM | 0.00525 µM |  |
| Cc1oc(C)c2c1C(=O)c1ccccc1C2=O | > 200 µM | 123 µM |  |
| COc1ccc(-c2oc(=O)c3ccccc3c2-c2ccccc2)cc1 | > 15.8 µM | > 15.8 µM |  |
| COc1ccc(N2N=NN(C(C)C)/C2=C(/Cl)c2nnnn2-c2ccc(OC)cc2)cc1 | > 200 µM | 9.33 µM |  |
| Cc1ccc(C2=NO[C@@H]3C(=O)N(c4ccc(Cc5ccc(N6C(=O)[C@H]7C(c8ccc(C)cc8)=NO[C@H]7C6=O)cc5)cc4)C(=O)[C@H]23)cc1 | > 11.5 µM | > 11.5 µM |  |
| CCCCOP(C)(=O)C(NC(=O)OCC)(C(F)(F)F)C(F)(F)F (stereo unspecified) | > 200 µM | > 200 µM |  |
| COP(=O)(/C=C/c1cc(C(=O)OCc2ccccc2)n(S(=O)(=O)c2ccccc2)c1)OC | 145 µM | > 200 µM |  |
| O=C1[C@@H]2C(c3ccccc3F)=NO[C@@H]2C(=O)N1c1ccc(Cc2ccc(N3C(=O)[C@H]4C(c5ccccc5F)=NO[C@H]4C3=O)cc2)cc1 | > 8.32 µM | > 8.32 µM |  |

| Compound | EC50 | IC50 | outcome |
| --- | --- | --- | --- |
| Cc1ccc2c(c1)C(=O)N(N(C)C)CC(=O)N2 |  |  | inactive |
| CC(C)C1=CC2=C[C@H](O)[C@H]3C(C)(C)CCC[C@]3(C)C2=C(O)C1=O | > 20 µM | 1.62 µM |  |
| Oc1c(CN2CCCCC2)ccc2ccccc12 | > 200 µM | 186 µM |  |
| CSc1nc(Br)nc2c1ncn2C1CC(Oc2ccc(C)cc2)C(COc2ccc(C)cc2)O1 (stereo unspecified) | > 200 µM | 79.4 µM |  |
| CC(C(O)Cc1ccccc1)N(C)N=Nc1ccc([N+](=O)[O-])cc1 (stereo unspecified) | > 200 µM | 20 µM |  |
| O=C(O)C1CCC(c2ccc(F)cc2F)N1 (stereo unspecified) | > 200 µM | > 200 µM |  |
| Cc1c(C(=O)C/C(=N/NC(=O)C[N+](C)(C)C)C(=O)Nc2ccc(Cl)cc2)[n+](=O)c2ccccc2n1O | > 9.12 µM | > 9.12 µM |  |
| O=c1cc(CBr)c2ccc(O)cc2o1 | > 200 µM | 102 µM |  |
| NC(=O)C1Cc2cc3c(cc21)OCO3 (stereo unspecified) | > 200 µM | > 200 µM |  |
| Nc1nc(Cl)cc(OCC2CC(O)(CO)C2)n1 (stereo unspecified) | > 200 µM | > 200 µM |  |
| O=C(CN(C(=O)OC12CC3CC(CC(C3)C1)C2)C(=O)OC12CC3CC(CC(C3)C1)C2)Oc1ccc([N+](=O)[O-])cc1 | > 200 µM | 9.77 µM |  |
| CC(=O)Nc1nc2c(=O)c3ccccc3sc2s1 |  |  | inactive |
| CC(=O)OC[C@]1(C)C2C=C[C@@H]3C4(CC[C@]5(C)C(C(C)N(C)C)[C@H](O)CC35C)CC24CC[C@@H]1N(C)C (stereo partly specified) |  |  | inactive |
| CCOC(=O)C(O)(CC1=NC(C(=O)OC)(C(=O)OC)C(c2cccc(C=O)c2)O1)C(=O)OCC (stereo unspecified) | > 200 µM | > 200 µM |  |
| Cc1cc(C)c2cc(=O)oc-2c(C)c1 | > 93.3 µM | > 93.3 µM |  |
| COc1ccccc1NC(=S)N/N=C/c1c(C)n(C)n(-c2ccccc2)c1=O | > 200 µM | 64.6 µM |  |
| Nc1nc(=O)n(C2OC(CO)C(O)C2Cl)cc1I (stereo unspecified) | > 200 µM | 1.17 µM |  |
| O=C(O)CC(c1ccccc1)C(CC(=O)O)c1ccccc1 (stereo unspecified) | > 437 µM | > 437 µM |  |
| Cn1c(=O)c(-c2ccccc2)c(O)c2ccccc21 | > 200 µM | > 200 µM |  |
| NCCCN1CCN(CCCNc2ccc3ncn4c5ccccc5c(=O)c2c34)CC1 | > 25.1 µM | 1.2 µM |  |
| COC(=O)NC(Nc1ccccn1)(C(F)(F)F)C(F)(F)F | > 200 µM | > 200 µM |  |
| CN(C)C(=O)NC(=S)N(C)C |  |  | inactive |

| Compound | EC50 | IC50 | outcome |
| --- | --- | --- | --- |
| Cc1ccc(S(=O)(=O)Oc2ccc3oc4c(CO)ccc(NCCN(C)C)c4c(=O)c3c2)cc1 | > 38.9 µM | 6.92 µM |  |
| COc1ccc(N=C2S/C(=N\C(=Nc3ccccc3)SCc3ccccc3)N(c3ccccc3)C2=Nc2ccc(OC)cc2)cc1 | > 200 µM | 120 µM |  |
| NNc1nnc(CCCCCCCCc2nnc(NN)n2N)n1N | > 200 µM | 37.2 µM |  |
| N#CCCNCCN(CCN(C(=O)Nc1ccccc1)c1ccccc1)C(=O)Nc1ccccc1 | > 200 µM | 93.3 µM |  |
| O=C(O)c1cccc(S(=O)(=O)NN2C(=O)CSC2c2c(O)ccc3ccccc23)c1 (stereo unspecified) | > 200 µM | 29.5 µM |  |
| O=C(O)CN(c1ccccc1)S(=O)(=O)c1ccc(Cl)cc1 |  |  | inactive |
| CCc1cccc(CC)c1N=C(NC(=O)c1ccc(Br)cc1)SC | > 200 µM | > 200 µM |  |
| COC1=C(C)C(=O)C(=O)c2ccccc21 |  |  | inactive |
| CCOC(=O)C1C(c2ccccc2)C2(C#N)C(=N)OC1(C)C2(C#N)C#N (stereo unspecified) | > 200 µM | 28.8 µM |  |
| O=C(O)CCSC(=O)Nc1cccc(F)c1 |  |  | inactive |
| CCOP1(=O)OCC(C(C)(C)C)CO1 (stereo unspecified) | > 200 µM | > 200 µM |  |
| COc1ccc2c(c1)C(O)C(CO)C(C(=O)O)C2 (stereo unspecified) | > 200 µM | > 200 µM |  |
| CC1=CC(c2ccccc2)OP1(=O)c1ccccc1 (stereo unspecified) | > 200 µM | > 200 µM |  |
| O=C(NCCCl)N(O)C(=O)Nc1ccccc1 | > 200 µM | 126 µM |  |
| Cc1ccc(C2(C)NC(=S)N(NC(N)=S)C2=S)cc1 (stereo unspecified) | > 32.4 µM | > 32.4 µM |  |
| C=C1C2CCC3(C4C[C@@H]5C6(C)CCCC5([C@H](O4)N4CCO[C@H]46)[C@@H]3C2)C1OC(C)=O (stereo partly specified) | > 18.2 µM | > 18.2 µM |  |
| CC1(C)CC23CC(C)(C)c4cccc(c42)OCc2ccc4ccc5ccc(nc5c4n2)COc2cccc1c23 | > 50.1 µM | > 50.1 µM |  |
| C#C[C@@]1(O)CCCC2=CC3(CC[C@]21C)SCCS3 | > 200 µM | 89.1 µM |  |
| CC1SC2=NC3=C(c4ccccc4C3=O)C(c3ccccc3Cl)N2C1=O (stereo unspecified) | > 35.5 µM | > 35.5 µM |  |
| CCCCCc1cc(O)c2c3c(c(=O)oc2c1)CP(=O)(c1ccccc1)CC3 (stereo unspecified) | > 25.1 µM | 19.1 µM |  |
| O=Cc1cn(CCCCCn2cc(C=O)c3ccccc32)c2ccccc12 | > 200 µM | > 200 µM |  |
| CC(C)CC(NC(=O)C(Cc1ccccc1)NC(=O)[C@H]1CC[C@H](NC(=O)C(Cc2ccc(OC(C)(C)C)cc2)NC(=O)OC(C)(C)C)C1)C(N)=O (stereo partly specified) |  |  | inactive |

| Compound | EC50 | IC50 | outcome |
| --- | --- | --- | --- |
| COc1cc(C2c3cc4c(cc3OC(NNS(=O)(=O)c3ccc(C)cc3)C2C)OCO4)cc(OC)c1O (stereo unspecified) |  |  | inactive |
| O=C1NC2(CCCCC2)NC12CCCCC2 | > 135 µM | > 135 µM |  |
| CC12CCC(=O)N1c1cnccc1N2 (stereo unspecified) | > 200 µM | > 200 µM |  |
| O=C1Cc2c([nH]c3ccc(Br)cc23)-c2ccccc2N1 | > 200 µM | 2.95 µM |  |
| COC(=O)[C@]12CCC(C)[C@H](C)[C@H]1C1=CCC3[C@@]4(C)CC[C@H](OC(C)=O)C(C)(C)C4CC[C@@]3(C)C1(C)C(O)C2 (stereo partly specified) |  |  | inactive |
| CC(C)=CCC/C(C)=C\CCC1(C)OC(=O)C2CC21 (stereo unspecified) | > 200 µM | 81.3 µM and 36.3 µM |  |
| COc1cc(/C=C/C(=O)c2ccccc2)cc(OC)c1OC | > 87.1 µM | 20.4 µM |  |
| Clc1ccc(Nc2ncco2)cc1Cl | > 200 µM | 107 µM |  |
| O=C(CS)NCCNC(=O)CS | > 25.1 µM | > 25.1 µM |  |
| C[N+](C)(C)CCCCCc1c2nc(c(CCCCC[N+](C)(C)C)c3ccc([nH]3)c(CCCCC[N+](C)(C)C)c3ccc([nH]3)c(CCCCC[N+](C)(C)C)c3nc1C=C3)C=C2 | > 100 µM | 57.5 µM |  |
| COc1ccc2c(c1)C(=O)CC(c1ccccc1)O2 (stereo unspecified) | > 200 µM | > 200 µM |  |
| CCOC(=O)C(Cc1ccc2c(c1)CCC2)Cc1ccc2c(c1)CCC2 | > 200 µM | 1.62 µM |  |
| CC1=C[C@H]2O[C@H]3C[C@H]4OC(=O)/C=C\C=C\C(=O)OCC[C@@H](C)C(O)C(=O)OC[C@@]2(CC1)[C@@]4(C)[C@]31CO1 (stereo partly specified) | > 0.363 µM | 0.0112 µM |  |
| CSC1=N/C(=C\c2cccs2)C(=O)N1CN1CCOCC1 | > 200 µM | 38 µM |  |
| COC(=O)N/N=C(\C)c1sc(-c2nc(C)c(/C(C)=N/NC(=O)OC)s2)nc1C | > 32.4 µM | > 32.4 µM |  |
| CCc1n[nH]c(=O)n1N |  |  | inactive |
| COc1ccc(-c2c3c(n(C4OC(COC(C)=O)C(OC(C)=O)C(OC(C)=O)C4OC(C)=O)c(=S)c2C#N)CCC3)cc1 (stereo unspecified) | > 200 µM | 112 µM |  |
| COc1ccc(C2C=C(c3ccc(C)cc3)N(c3ccc(OC)cc3[N+](=O)[O-])C3C(=O)OC(=O)C23)c(OC)c1 (stereo unspecified) | > 200 µM | 31.6 µM |  |
| O=C1NC(=O)c2ccc3c4c(ccc1c24)C(=O)NC3=O | > 200 µM | > 200 µM |  |
